From ChEMBL document CHEMBL1144941, “Synthesis of second-generation transition state analogues of human purine nucleoside phosphorylase” (J Med Chem, 2003)

Molecular target: T1, Purine nucleoside phosphorylase (Homo sapiens) (UniProt P00491)
T1 sequence (whole entry): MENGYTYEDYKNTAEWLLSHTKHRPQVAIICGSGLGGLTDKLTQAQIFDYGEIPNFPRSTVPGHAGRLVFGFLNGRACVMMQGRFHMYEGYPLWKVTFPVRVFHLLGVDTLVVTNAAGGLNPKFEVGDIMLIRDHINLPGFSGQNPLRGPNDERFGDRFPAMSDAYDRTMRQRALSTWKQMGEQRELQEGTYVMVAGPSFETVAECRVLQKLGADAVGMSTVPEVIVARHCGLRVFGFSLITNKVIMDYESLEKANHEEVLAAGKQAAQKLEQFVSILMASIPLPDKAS
Conditions: Urine

## OC[C@H]1CN(Cc2n[nH]c3c(O)ncnc23)CC1O (stereo partly specified)
  NS: No slow onset
